In brackets after ≈: the same amount, converted by molar mass. Several values for one entry are separate records, joined by “and”; a condition that tells them apart may be missing. Equal values may be shown once.
Assays:
[1] = Aqueous solubility estimation (OECD test #105) in 1 M supporting electrolytes
Description: After each addition the test tube was ultrasonicated and/or shaken vigorously using a Vortex Generator for at least 10 minutes at room temperature. Then the tube was inspected visually for undissolved sample and the addition of supporting electrolyte solution continued until the sample seemed just dissolved. The volumes just before and after full dissolution are used for calculating the solubility interval (Supplementary, S4 and S5) and the solubility is estimated as the average between the two.

[2] = Cyclic voltammetry: formal redox potential, peak current ratio, electrochemical reversibility; type: physicochemical; settings: for formal redox potential E0': midpoint of CV peak potentials; for pH dependence (slope) of E0': pH 0 to pH 13; for change of E0' from acidic (pH 0) to alkaline (pH 13): 13 pH units
Description: The investigated compounds were used as-purchased and without any purification. […] For each series of CVs, a freshly polished electrode was used. The CVs for soluble compounds in 1 mM concentration were recorded in a glass beaker with a customized lid in nitrogen purged solutions of three different pHs, namely pH 0 (1 M H2SO4), pH 7 (0.5 M phosphate buffer) and pH 13 (1 M NaOH). The pH of the NaOH solution is taken as 13 to account for carbonization of the solution with exposure to air. A background CV was recorded before each CV experiment to exclude background contaminations. The CVs of insoluble compounds in 1 M H2SO4, or 0.5 M phosphate buffer were recorded as follows: 6 mL of the supporting electrolyte was mixed with approximately 4 mL of acetone, and then a small amount of the quinone was added so that its concentration was around 1 mM.
Each CV was analyzed in terms of peak potentials and peak currents. Peak currents were determined by subtracting a polynomial fit of the background from the recorded current as exemplified in Supplementary, S1. A plot of the absolute values of the peak currents to the square root of the scan rate was constructed and, when reasonable, a linear fit included to evaluate the electrochemical (Nernstian) reversibility of the electrochemical reaction. The peak current Ip for reversible reactions are given by equation (1).
Where F is the Faraday constant, R the gas constant, T the temperature, n the number of electron transferred, A the area of the electrode, DOthe diffusion coefficient and CO^*the bulk concentration of the analyte and v the scan rate. The peak current ratio is expected to be close to one for reversible species. The formal redox potential (E^0’), which is the adjusted form of the standard redox potential, where effects of the medium is taken into account, is reported here as the midpoint potential between the two peak potentials in the CV[24]. All half-cell potentials in this work refer to the normal hydrogen electrode (VNHE).

[3] = 1 M H2SO4 supporting electrolyte prepared from MilliQ water, aqueous buffer, thermodynamic from solid, Solubility, 1 M H2SO4, room temperature, interval just after / before full dissolution
[4] = 1 M KCl supporting electrolyte prepared from MilliQ water, saline or isotonic, thermodynamic from solid, Solubility, 1 M KCl, room temperature
[5] = pH 0 (1 M H2SO4), about 1 mM, acetone added for insoluble compounds
[6] = aqueous buffer, thermodynamic from solid, Solubility
[7] = saline or isotonic, thermodynamic from solid, Solubility
[8] = 1 M KOH supporting electrolyte prepared from MilliQ water, aqueous buffer, thermodynamic from solid, Solubility, 1 M KOH, room temperature
[9] = water / supporting electrolytes as worded

Row | solubility [1, 3] [mM] | solubility [1, 4] [mM] | Peak current ratio ([2]; pH 0) | formal redox potential E0' [2, 5] | Peak current ratio ([2]; pH 7) | formal redox potential E0' ([2]; pH 7 (0.5 M phosphate buffer)) | Peak current ratio ([2]; pH 13) | formal redox potential E0' ([2]; pH 13 (1 M NaOH)) | Electrochemical reversibility ([2]; pH not specified) | Electrochemical reversibility ([2]; pH 13) | solubility [1, 8] [mM] | SMILES | also measured
1 |  |  | 2.3(1) | 0.669(5) VNHE | 1.2(3) | 0.433(7) VNHE |  | 0.11(1) VNHE |  |  |  | Oc1ccc(O)cc1 [HQ(1,4), Para hydroquinone] | Electrochemical reversibility ([2]; pH 0): Quasireversible; Electrochemical reversibility ([2]; pH 7): Quasireversible
2 |  | ~10 | 0.8(1) | 0.55(1) VNHE | 0.52(3) | 0.24(1) VNHE | 0.9(1) |  | Quasireversible |  | 900 | O=C1C=C(S(=O)(=O)O)c2ccccc2C1=O [NQ(1,2)S, 1,2-naphtoquinone-4-sulfonate sodium] | 
3 | 70 (≈ 8690 µg/mL) | 80 (≈ 9930 µg/mL) |  | -0.013(3) VNHE |  | Unstable |  | Unstable |  |  | 900 (≈ 112000 µg/mL) | O=C(O)c1cnccn1 [Pyrazine-2-carboxylic acid] | 
4 |  |  |  |  |  |  |  |  |  | Irreversible |  | Oc1ccccc1O [HQ(1,2), Ortho hydroquinone] | Electrochemical reversibility ([2]; pH 0): Quasireversible; Electrochemical reversibility ([2]; pH 7): Quasireversible
5 |  |  |  | 0.403(3) VNHE |  | Unstable |  | Unstable |  |  |  | c1ccc2nc3ccccc3nc2c1 [Phenazine] | solubility [1]: < 10 mM; solubility [1, 6]: 10 mM (≈ 1800 µg/mL); solubility [1, 7]: < 10 mM
6 | < 10 | < 10 |  |  |  |  |  | ≈ 0.4 VNHE | electrochemically irreversible |  | < 10 | O=C1C(Cl)=C(Cl)C(=O)c2c(O)ccc(O)c21 [NQ(1,4)DHDCl, 2,3-dichloro-5,8-dihydroxy-1,4-naphtoquinone] | aqueous solubility, qualitative [1, 9]: insoluble in water
7 | ~7000 (≈ 561000 µg/mL) | ~7000 (≈ 561000 µg/mL) |  | -0.013(2) VNHE |  | Unstable |  | Unstable |  |  | ~7000 (≈ 561000 µg/mL) | c1cnccn1 [Pyrazine, 1,4-diazine] | 
8 |  | 10 (≈ 1820 µg/mL) | 0.5(1) | 0.707(4) VNHE | 0.21(7) | 0.23(7) VNHE | 0.2(1) | -0.05(6) VNHE | Quasireversible |  |  | Oc1c(F)c(F)c(O)c(F)c1F [HQ(1,4)TF, 1,2,4,5-tetrafluoro-3,6-dihydroxybenzene] | 
9 |  |  | 0.4(1) | 0.86(3) VNHE |  | 0.7 VNHE |  |  | Quasireversible |  |  | O=S(=O)(O)c1cc(O)c(O)c(S(=O)(=O)O)c1 [HQ(1,2)DS, 4,5-dihydroxy-1,3-benzenedisulfonate disodium monohydrate] | reduction/oxidation peak ratio ([2]; all pH values): significantly low; increase of E0' relative to ortho-BQ ([2]; two sulfonate groups): 50 mV

More lines, now with the values behind:

Row | SMILES | solubility [1, 3] [mM] | solubility [1, 4] [mM] | Peak current ratio ([2]; pH 0) | formal redox potential E0' [2, 5] | Peak current ratio ([2]; pH 7) | formal redox potential E0' ([2]; pH 7 (0.5 M phosphate buffer)) | Peak current ratio ([2]; pH 13) | formal redox potential E0' ([2]; pH 13 (1 M NaOH)) | Electrochemical reversibility ([2]; pH not specified) | Electrochemical reversibility ([2]; pH 13) | solubility [1, 8] [mM] | also measured
10 | Cc1cc(O)c2c(c1)C(=O)c1cc(O)cc(O)c1C2=O [AQTrHM, 1,3,8-trihydroxy-6-methylanthracene-9,10-dione] | < 10 | < 10 | 0.15(4) | -0.04(1) VNHE | 0.19(6) | -0.386(2) VNHE | 0.2(2) | -0.63(1) VNHE | Reversible |  |  | 
11 | O=C1C=C(O)C(=O)C=C1O [BQ(1,4)DH, 2,5-dihydroxy-1,4-benzoquinone] | < 10 | < 10 | 0.87(4) | 0.382(4) VNHE and 0.38 VNHE | 1.1(2) |  | 0.8(1) |  | Quasireversible |  |  | reduction of E0' compared to the parent BQ compound ([2]; pH 0): 300 mV; pH dependence (slope) of E0' [2]: ~−90 mV/pH unit
12 | O=C1C=CC(=O)C=C1 [para-BQ] |  |  |  |  |  |  |  | 0.11 VNHE |  |  |  | pH dependence (slope) of E0' [2]: −45 mV/pH unit
13 | O=C1c2ccc(O)c(O)c2C(=O)c2c(O)ccc(O)c21 [AQTH(1,2), 1,2,5,8-tetrahydroxy-9,10-anthraquinone] | < 10 | < 10 |  | -0.084(5) VNHE |  | -0.414(3) VNHE | 0.96(6) | -0.69(1) VNHE |  | Reversible |  | 
14 | Oc1c(Cl)c(Cl)c(O)c(Cl)c1Cl [HQ(1,4)TCl, Tetrachloro hydroquinone] |  |  | 0.72(5) | 0.70(1) VNHE | 1.1(2) | 0.277(1) VNHE |  | 0.08(1) VNHE | Quasireversible |  |  | aqueous solubility, qualitative [1]: insoluble in water; solubility [1]: < 10 mM; solubility [1, 6]: < 10 mM; solubility [1, 7]: < 10 mM
15 | O=C1c2c(O)ccc(O)c2C(=O)c2c(O)ccc(O)c21 [AQTH(1,4), 1,4,5,8-tetrahydroxy-9,10-anthraquinone] | < 10 | < 10 |  | 0.200(4) VNHE |  |  | 1.2(1) |  |  | Reversible |  | solubility compared to AQDH(1,4) ([1]; alkaline): only half the solubility; E0' more negative compared to AQDH(1,4) ([2]; alkaline): approximately 100 mV
16 | CC(C)=CCC1=C(O)C(=O)c2ccccc2C1=O [NQ(1,4)HB, 2-hydroxy-3-(3-methyl-2-butenyl)-1,4-naphthoquinone] | < 10 | < 10 |  | 0.333(3) VNHE | 1.08(5) |  | 0.38(4) |  |  | Quasireversible | 700 (≈ 170000 µg/mL) | change of E0' from acidic (pH 0) to alkaline (pH 13) [2]: 0.8 V; Electrochemical reversibility ([2]; pH 0): Quasireversible; pH dependence (slope) of E0' [2]: 67 mV/pH unit; Electrochemical reversibility ([2]; pH 7): Reversible
17 | Nc1c(S(=O)(=O)[O-])cc(Br)c2c1C(=O)c1ccccc1C2=O.[Na+] [AQS(2)NBr, 1-amino-4-bromo-9,10-anthraquinone-2-sulfonate sodium] |  |  |  | 0.14(4) VNHE |  |  |  |  | Quasireversible |  |  | 
18 | O=C1C(O)=C(Cl)C(=O)C(O)=C1Cl [BQ(1,4)DHDCl, 2,5-dichloro-3,6-1,4-benzoquinone] | < 10 | 10 (≈ 2090 µg/mL) | 1.3(1) | 0.394(1) VNHE | 1.2(4) |  | 0.8(2) |  |  | Quasireversble | < 10 | aqueous solubility, qualitative [1, 9]: insoluble in water; change of E0' from acidic (pH 0) to alkaline (pH 13) [2]: 0.99 V; Electrochemical reversibility ([2]; pH 0): Reversible; pH dependence (slope) of E0' [2]: −76 mV/pH unit; Electrochemical reversibility ([2]; pH 7): Quasireversble
19 | O=S(=O)([O-])c1cc(O)ccc1O.[K+] [HQ(1,4)S, 2,5-dihydroxybenzenesulfonate potassium] |  |  |  | 0.664(8) VNHE |  | 0.471(4) VNHE |  | -0.07(1) VNHE | Quasireversible |  |  | 
20 | O=C1C(O)=C(O)C(=O)C(O)=C1O [BQ(1,4)TH, Tetrahydroxy-1,4-benzoquinone] | < 10 | < 10 |  | 0.28 VNHE |  |  |  |  | completely loses its electrochemical activity | Quasireversible | < 10 | Electrochemical reversibility ([2]; pH 6.2): Quasireversible
21 | O=C1c2cccc(O)c2C(=O)c2cccc(O)c21 [AQDH(1,5), 1,5-dihydroxy-9,10-anthraquinone] | < 10 | < 10 |  |  |  |  | 0.79(9) |  |  | Quasireversible |  | 

Reference: PMC5155426, “Organic Redox Species in Aqueous Flow Batteries: Redox Potentials, Chemical Stability and Solubility” (Scientific Reports, 2016)
